This note sets out measurements from patent US20120252721A1 (priority 2011, published 2012).

This experiment concerns HCV genotype 1b replicon, NS5B M423T. Briefly: Luciferase replicon transient transfection assay, genotype 1b NS5B M423T. It counts as cell-based, hepatitis C virus. How it is done:
The luciferase replicon transient transfection assay measures the ability of a test compound to inhibit the replication of a transiently-transfected HCV luciferase-bearing wild-type or mutant replicon in cured human hepatoma cells (Huh7.5). The inhibition of HCV replication was measured by quantification of luciferase protein expression. This assay has been validated using a panel of genotype 1a and 1b replicons bearing mutations known to be associated with resistance to BMS-790052. Briefly, subconfluent Huh7.5 cells were electroporated with 10 μg of wild-type or mutant luciferase-bearing HCV replicon RNA. The cells were then seeded in 96-well opaque white plates at 3×10^4 cells/well in 150 μL/well and incubated for 4 hrs at 37° C./5% CO2. […] The plates were agitated on a rotating platform at room temperature for 3 min and read in a Victor^3V microplate reader (Perkin-Elmer) using a 700 nm cut-off filter with a 1 sec read time. EC50 values were calculated from dose response curves from the resulting best-fit equations determined by Microsoft Excel and XLfit 4.1 software.
To determine the replication capacity of each mutant relative to the wild-type parental replicon, transfected cells were plated on two plates and were not treated with compound. Luciferase activity was measured at time points of 4 hrs and 4 days after plating for each replicon. […]

What is called EC50 is the concentration needed to bring the measured effect to its halfway point. A higher EC50 goes with weaker potency. On to `COC(=O)N[C@H](C(=O)N1CCC[C@H]1c1nc2cc(-c3csc4c(-c5ccc(-c6cnc([C@@H]7CCCN7C(=O)[C@H](NC(=O)OC)c7ccccc7)[nH]6)cc5)csc34)ccc2[nH]1)C(C)C` [Compound A169, [(S)-1-((S)-2-{6-[6-(4-{(S)-2-[1-((R)-2-methoxycarbonylamino-2-phenyl-acetyl)-pyrrolidin-2-yl]-3H-imidazol-4-yl}-phenyl)-thieno[3,2-b]thiophen-3-yl]-1H-benzoimidazol-2-yl}-pyrrolidine-1-carbonyl)-2-methyl-propyl]-carbamic acid methyl ester], for which the 50% effective concentration (EC50) (Hepatitis C virus, genotype 1b, NS5B mutation M423T (confers resistance to Thiophene)) is 2 pM. For the same compound, the Ratio ({}) is on record as 1.22.
